Series [1] has as its system advanced solid tumours. Nature of the series: Antitumour activity (RECIST). In kind it is in vivo, human. As to the method: (§1) Prior to therapy, medical history taking and physical examination were performed. A complete blood cell count (CBC), white blood cell (WBC) differential and serum biochemistry were performed, as were urinalysis, electrocardiogram, MUGA scanning and, chest X-ray. Weekly evaluations during cycles 1 and 2 and every other week thereafter included physical examination, AE assessment, CBC, WBC differential and serum chemistry including renal function. Tumour measurements and MUGA scanning were performed every other cycle. Response was assessed using RECIST ([Therasse et al, 2000]).

Series [2] can be described thus: Phase I safety, DLT and MTD, OD 14 days on / 14 days off. In kind it is in vivo. On the procedure:
Tablets were taken 1 h before breakfast. A cycle was defined as 14 days on treatment followed by 14 days off medication. […] The starting dose corresponded with one-fifth of the toxic dose low in rats, the most sensitive species. The dose for successive cohorts was doubled until observation of drug-related AE grade ⩾2 according to common toxicity criteria v3.0 in one or more patients in the first cycle. Thereafter escalation steps were ⩽50%. Should DLT be observed in one out of six patients and dose escalation continued, escalation steps were ⩽35%. Initially, three patients were treated per dose level. If one patient experienced drug-related DLT, three additional patients were treated. When no further patient experienced DLT, the dose was escalated. When ⩾2/6 patients experienced DLT, three additional patients were treated 1 dose tier below unless six had already been treated there.
Maximum tolerated dose was defined as the highest dose with ⩽1/6 patients experiencing DLT during cycle 1. Dose-limiting toxicity was defined as grade 3 or 4 nonhaematological toxicity except untreated nausea, vomiting, or diarrhoea; grade 4 haematological toxicity; grade 3 diarrhoea, nausea, or vomiting despite supportive care; need for loperamide for ⩾7 days to treat or prevent grade ⩾2 diarrhoea; need for continuous administration of 5HT-3 antagonists or dexamethasone to treat or prevent grade ⩾2 nausea or vomiting; occurrence of grade ⩾2 cardiac left ventricular function or renal toxicity. In the absence of DLT or disease progression, patients received six cycles and were allowed to continue in an extension protocol. Intrapatient dose escalation was not allowed. The study was approved by local Ethics Committees, and all patients provided written informed consent.
as §1

For series [3] the following is noted: minipig, in vivo; cited from earlier work.
Series [4] deals with A431, MDA-MB-453, NCI-N87 gastric and SKOV-3 ovarian xenografts. Further details: method as in Boehringer-Ingelheim, data on file. The settings on record: oral, ref Boehringer-Ingelheim, data on file, cited from earlier work.
The target of series [5] is vascular endothelial growth factor 2. The settings on record: at concentrations 100- to 1000-fold higher; ref Boehringer-Ingelheim, data on file; cited from earlier work.
Series [6] is described as follows: Plasma pharmacokinetics in patients (HPLC-MS/MS, noncompartmental). Particulars: for CL/F / Vd/F / half-life / AUC(0-t) / Cmax / Tmax: human, plasma, oral.
The next series deals with epidermal keratinocytes. Briefly: Pharmacodynamics in paired skin biopsies (immunohistochemistry). In kind it is in vivo, human. Particulars: on therapy day 14 cycle 1, all dose levels pooled, 36 paired biopsies; pretreatment 14.0±4.5%; P<0.0001.
Another series concerns the target C-SRC. Particulars: at concentrations 100- to 1000-fold higher; ref Boehringer-Ingelheim, data on file; cited from earlier work.
For series [7], the system named is advanced solid tumours. The settings on record: cited from earlier work.
Series [8] relates to gefitinib-resistant kinases. Details: method as in Carter et al, 2005; Kwak et al, 2005. Particulars: preclinical studies, ref Carter et al, 2005, Kwak et al; cited from earlier work.
Details of series [9]: method as in Torrance et al, 2000. Particulars: ref Torrance et al, 2000; cited from earlier work.
In another series the test system is EGFR phosphorylation. Details: method as in Torrance et al, 2000. The settings on record: xenograft model; ref Torrance et al, 2000; cited from earlier work.

What is called CL/F is the apparent clearance, not corrected for the fraction that reaches the circulation. Broadly, the Vd/F is the volume of distribution divided by bioavailability. What is called half-life is the time in which the quantity being followed falls by half. Higher therefore signals slow loss. By AUC(0-t) is commonly meant exposure summed from dosing to a finite time, without extrapolation to infinity. Low readings indicate low exposure, high ones high exposure. By Cmax is commonly meant the highest concentration seen after dosing. What is called Tmax is the time from dosing to the highest level.

For `CN(C)C/C=C/C(=O)Nc1cc2c(Nc3ccc(F)c(Cl)c3)ncnc2cc1O[C@H]1CCOC1` [BIBW 2992], the objective response entry in the series on advanced solid tumours [1] (38 patients, 10–100 mg) is listed as “No partial or complete responses”. Also, the “patients with minor tumour regressions” value in the series on advanced solid tumours [1] (all treated at doses of ⩾45 mg) is “Eight”. Also, the “median number of cycles in patients with stable disease” value with advanced solid tumours [1] (patients with stable disease ⩾4 cycles) is on record as 6 (range 5–9) cycles. Also, the “patients with stable disease lasting ⩾4 cycles” value in the series with advanced solid tumours [1] (various tumour types) is reported as “seven”. For the same compound, the Maximum tolerated dose in series [2] (OD 14 days on, 14 days off) was 70 mg. Also, in series [2] (OD, 14-day on, 14-day off schedule), the “recommended dose (phase 2)” value is 70 mg. For the same compound, in series [2] (human, in vivo), the incidence of diarrhoea turned out to be 84%; the “incidence of gastrointestinal AE” value was determined as 92%; the onset of diarrhoea was at most 7 days; the “overall incidence of rash, acne and dry skin” value is recorded as 95%. Besides, in series [2] (human, in vivo), the “patients with grade 1 anemia” value was 6 patients; the “patients with mild fatigue” value amounted to 24 patients; the “patients with mild gastrointestinal AE (diarrhoea, nausea, vomiting)” value is on record as 35 patients; the “patients with self-limiting epistaxis” value is on record as 20 patients. For the same compound, in [2] (in vivo), the “DLT observed in cycle 1, initial 70 mg cohort” value is recorded as “one”; the “patients with LVEF reduction” value was “Two”; the “patients with grade 1 thrombocytopaenia” value is listed as “two”; the “patients with grade 2 ALT” value was “three”. Moreover, in [2] (in vivo), the “patients with grade 2 AST” value is “four”, the “patients with grade 2 alkaline phosphatase” value is listed as “five” and the “patients with grade 2 bilirubin” value is given as “two”. Moreover, the “organs in which toxicity occurred” value in series [3] is listed as “gastrointestinal tract”. In addition, the tumour regression result in series [4] (mice with A431, MDA-MB-453, NCI-N87 gastric, SKOV-3 ovarian models) was “induced tumour regression”. The “plasma concentrations at which tumour regression was induced” value in series [4] (xenograft models in mice) is 80 to 280 nM. Also, in series [5], the kinase inhibition result is “not inhibited”. For the same compound, the “time to reach steady state” value in [6] (OD dosing) was at most 8 days. In [6], this compound registered a CL/F of 383 to 1390 mL/min, a Vd/F of 1250 to 4760 L and a half-life of 28 to 43 h. Also, in series [6] (10 mg), the area under the curve AUC(0-t) stood at 0.199 µg·h/mL, the CL/F turned out to be 839 mL/min, the concentration peaked (Cmax) at 0.0141 µg/mL and the time of peak concentration (Tmax) was 2.98 h. In series [6] (10 mg), the Vd/F was 2610 L and the half-life is 35.9 h. Further, in series [6] (20 mg), the area under the curve AUC(0-t) is 0.241 µg·h/mL, the CL/F turned out to be 1390 mL/min, the Cmax was 0.0162 µg/mL and the Tmax was 4 h. In series [6] (20 mg), this compound had a Vd/F of 4760 L and a half-life of 39.7 h. In [6] (30 mg), the AUC(0-t) was found to be 1.31 µg·h/mL, the apparent clearance (CL/F) is 383 mL/min, the highest level (Cmax) was 0.111 µg/mL and the Tmax came to 0.95 h. In series [6] (30 mg), this compound gave a Vd/F of 1250 L and a half-life of 37.7 h. Besides, in series [6] (45 mg), the area under the curve AUC(0-t) was determined as 0.84 µg·h/mL, the CL/F was determined as 893 mL/min, the Cmax stood at 0.0684 µg/mL and the Tmax was 3 h. In series [6] (45 mg), this compound gave a Vd/F of 3350 L and a half-life of 43.4 h. Also, in [6] (70 mg), the AUC(0-t) came out at 2.62 µg·h/mL, the CL/F came to 445 mL/min, the Cmax is 0.18 µg/mL and the Tmax stood at 2 h. In series [6] (70 mg), this compound had a Vd/F of 1530 L and a half-life of 39.6 h. In series [6] (85 mg), the AUC(0-t) is 2.34 µg·h/mL, the apparent clearance (CL/F) turned out to be 604 mL/min, the concentration peaked (Cmax) at 0.163 µg/mL and the Tmax is 2 h. In series [6] (85 mg), this compound gave a Vd/F of 1610 L and a half-life of 30.8 h. In series [6] (100 mg), the AUC(0-t) was determined as 2.75 µg·h/mL, the apparent clearance CL/F came to 606 mL/min, the highest concentration (Cmax) stood at 0.234 µg/mL and the Tmax stood at 1 h. Also, in [6] (100 mg), the Vd/F worked out at 1500 L and the half-life was 28.6 h. Besides, the “percentage Ki-67-positive cells (means±s.d.)” value with epidermal keratinocytes is reported as 7.9±4.5%. Also, the kinase inhibition entry on C-SRC was “not inhibited”. Further, the “patients with partial tumour responses” value with advanced solid tumours [7] (adenocarcinoma of the lung, ref Shaw et al, 2006) is listed as “two”. Moreover, the “LVEF changes in additional trials” value with advanced solid tumours [7] (preliminary data from ⩾120 patients, ref Agus et al, 2006, Shaw et al) is “not indicated significant LVEF changes”.
Take `CCOc1cc2ncc(C#N)c(Nc3ccc(F)c(Cl)c3)c2cc1NC(=O)/C=C/CN(C)C` [EKB-569]: the “inhibition of gefitinib-resistant kinases” value in series [8] is “inhibition”. Also, the plasma half-life in series [9] was 2 h. Moreover, the “duration of inhibition of EGFR phosphorylation” value in the series on EGFR phosphorylation was above 24 h.
With `CCOc1cc2ncc(C#N)c(Nc3ccc(OCc4ccccn4)c(Cl)c3)c2cc1NC(=O)/C=C/CN(C)C` [HKI-272], the “inhibition of gefitinib-resistant kinases” value in series [8] is given as “inhibition”.
As to `C=CC(=O)Nc1cc2c(Nc3ccc(F)c(Cl)c3)ncnc2cc1OCCCN1CCOCC1` [CI-1033], in series [8], the “inhibition of gefitinib-resistant kinases” value is “inhibition”.

The values above are taken from article PMC2359721 (British Journal of Cancer, 2007).
